# Reference: the supplement of paper PMC8671470
# Key:
# Experiment in all cases: cell viability (% survival relative to DMSO control, bortezomib = 0%); higher = less cytotoxic
# Conditions in all cases: 72 h
# MOLM-13 = test system: MOLM-13
# Method in brief: (§1)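 In 384-well plates pre-printed with compounds at 1, 10, 100, 1000 or 10000 nM, duplicate wells received cells from 10 AML and 5 CML lines at densities within the linear growth range. The plates stayed at 37 °C with 5% CO2 for 72 h before CellTiter-Glo luminescence was recorded. Each entry is averaged percent survival. Scaling placed vehicle at 100% and a 10 µM positive control at 0%.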
# KU-812 = test system: KU-812
# Method in brief: as §1
# NOMO-1 = test system: NOMO-1
# Method in brief: as §1
# THP-1 = test system: THP-1
# Method in brief: as §1
Compound,cell viability (MOLM-13; 1 nM) [%],cell viability (MOLM-13; 10 nM) [%],cell viability (MOLM-13; 100 nM) [%],cell viability (MOLM-13; 1000 nM) [%],cell viability (MOLM-13; 10000 nM) [%],cell viability (KU-812; 1 nM) [%],cell viability (KU-812; 10 nM) [%],cell viability (KU-812; 100 nM) [%],cell viability (KU-812; 1000 nM) [%],cell viability (KU-812; 10000 nM) [%],cell viability (NOMO-1; 1 nM) [%],cell viability (NOMO-1; 10 nM) [%],cell viability (NOMO-1; 100 nM) [%],cell viability (NOMO-1; 1000 nM) [%],cell viability (NOMO-1; 10000 nM) [%],cell viability (THP-1; 1 nM) [%],cell viability (THP-1; 10 nM) [%],cell viability (THP-1; 100 nM) [%],cell viability (THP-1; 1000 nM) [%],cell viability (THP-1; 10000 nM) [%]
O=[As]O[As]=O (stereo not given) [Arsenic trioxide],110,104,124,102,18.5,98.5,105,112,93.4,61.5,98,96,110,100,71.4,93.9,96.1,106,92.4,82.2
C=C1C(=O)O[C@H](CCCCCCCC)[C@H]1C(=O)O [C75],102,95.2,106,99.3,137,95,97.6,105,102,106,108,99.7,113,100,109,111,94.7,111,108,102
O=NN(CCCl)C(=O)NCCCl [Carmustine],97.6,106,98.2,106,101,99.4,118,114,98.5,97.1,102,103,104,100,99,97.6,107,102,101,98.9
O[C@H]1[C@H](O)[C@@H](O)CN2CC[C@H](O)[C@H]12 [Castanospermine],79.9,90.7,108,123,117,96.7,93.5,105,100,94.6,105,111,105,105,86.7,91.9,105,101,96.9,98.8
N=C(N)c1ccc(N=NNc2ccc(C(=N)N)cc2)cc1 [Diminazene],94.4,98.1,101,73.7,93.9,89.2,100,95.5,101,85.7,106,99,104,102,86.9,105,99.7,107,103,86.3
OCCN(CCO)c1nc(N2CCCCC2)c2nc(N(CCO)CCO)nc(N3CCCCC3)c2n1 [Dipyridamole],116,117,97.5,83.5,97.8,87.9,98.7,90.7,86.5,69.4,98,101,107,92.3,81.9,96.6,100,107,90.8,81.5
Cc1cc(O)c2c(c1)C(=O)c1cc(O)cc(O)c1C2=O [Emodin],67,101,112,95.2,71.4,95.1,100,104,89.8,80.8,99.1,100,103,104,112,90.6,97.3,106,90.5,105
N#Cc1ccc(C2CCCc3cncn32)cc1 (stereo not given) [Fadrozole],108,86.8,92.7,94.4,93.2,95.8,87.3,92.2,112,112,100,90.2,93.4,100,105,99.6,96.3,96.2,107,102
Cc1nc(-c2ccc(OCC(C)C)c(C#N)c2)sc1C(=O)O [Febuxostat],90.6,102,141,103,94.9,101,97.3,94,98.4,83.9,96.3,97.7,98.5,99.6,93.1,102,92.4,95.1,99.6,93.6
OC[C@H]1N[C@@H](c2c[nH]c3c(O)ncnc23)[C@H](O)[C@@H]1O [Forodesine],81.3,89.2,93.1,103,84.1,89.9,96,96.8,96.4,75.4,97.9,92.3,97.3,96.9,87.4,100,93.9,90.7,83.1,74.3
O=c1oc2c(cc1O)oc(=O)c1cc(O)c(O)c(O)c12 [Galloflavin],99.3,120,92,115,119,94.8,96,90.7,96.6,105,91.8,97.7,99.1,102,106,98,99.3,101,99.4,108
N[C@@H](CCC(=O)N[C@@H](CS)C(=O)NCC(=O)O)C(=O)O [Glutathione],111,114,91.4,92.5,92.1,105,110,108,96,96.5,98.9,105,91.1,94.2,106,100,102,95.4,105,105
CC1Cc2ccccc2N1NC(=O)c1ccc(Cl)c(S(N)(=O)=O)c1 (stereo not given) [Indapamide],100,93.3,96.5,100,86.1,89.8,111,95.8,104,89.7,98.2,103,101,101,102,93.5,105,93.2,95.4,97
COc1ccc2c(c1)c(CC(=O)O)c(C)n2C(=O)c1ccc(Cl)cc1 [Indomethacine],105,93.7,98.2,108,94.5,100,101,95.6,96.4,80,98.3,107,100,110,95.7,100,98.8,105,110,97.8
